Common to all, as to format: in vivo, mouse
In experiment [1] the test system is retinal ganglion cells (RGCs). Description: IPL thickness and GCL with IPL thickness after ON injury (immunohistochemistry, SD-OCT). The conditions noted are these: RIP3−/− mice; one week after ON injury. The method, then:
An anti-TNF-α neutralizing antibody (0.1 mg/ml) or a control antibody was injected into the vitreous of mice that underwent ON injury. One week following injection, the number of RGCs were measured. In addition, inner plexiform layer (IPL) thickness (a location of RGC axons) was also assessed. Specifically, eyes were enucleated and RGC loss was quantified from histological sections of mouse retina. Only transverse sections involving the optic disc were used for analysis and the fields corresponding to approximately 400 μm of both sides of retina extending from the ON head (2 points/section×3 sections per eye, n=6) were examined with an optical microscope (×40 objectives). IPL thickness was measured with OpenLab software (Open Lab, Florence, Italy) (2 points/section×3 sections per eye, n=6). The ratio of IPL thickness was calculated as a percentage of IPL thickness in the normal mouse eyes (n=6).
Inner plexiform layer (IPL) thickness and ganglion cell layer (GCL) with IPL thickness (location of RGC cell bodies and axons) were measured using immunohistochemistry and a Spectral Domain Optical Coherence Tomography (SD-OCT) system (Bioptigen Inc., Durham, N.C.). […] The thickness of GCL+IPL was assessed at 500 μm, 400 μm, 300 μm distance from the ON head (nasally and temporally) as well as at 200 μm, 400 μm above and below the ON head.

Experiment [2] deals with retinal ganglion cells (RGCs). Description: NMDA retinal excitotoxicity model: Brn3b positive cells. The conditions noted are these: NMDA injected intravitreously in combination with the compounds. The source says: Two mouse models of RGC death were utilized: optic nerve (ON) injury and N-methyl-D-aspartate (NMDA) retinal excitotoxicity. ON injury leads to RGC death as a result of primary damage to the axons, with its ensuing disruption of retrograde axonal transport (Libby et al., (2005) PLOS GENET 1:17-26) and is used as an RGC death model. In the ON injury model, mice were anesthetized and subjected to severe crush injury at 1-2 mm distance from the eyeball for 15 seconds using cross-action forceps taking special care not to interfere with the blood supply (Levkovitch-Verbin, (2004) EYE 18:1066-1074). Injured mice were randomly divided into 4 groups for treatment: vehicle group (0.5% DMSO and 0.8% cyclodextrin in PBS, n=6), ZVAD group (300 n=6), Nec-1 group (4 mM, n=6), and ZVAD plus Nec-1 group (n=6). Soon after injury, each group received an intravitreal injection (2 μl) with the respective compounds. In the NMDA retinal excitotoxicity model, NMDA (2 μl of a 0.1M stock; Sigma-Aldrich) was injected intravitreously in combination with ZVAD, Nec-1, or ZVAD plus Nec-1 and mice were separated into the aforementioned 4 groups. […]

Experiment [3] relates to Apoptosis inducing factor (AIF). In words: AIF immunostaining with TUNEL after ON injury (nuclear translocation). The conditions noted are these: one day after ON injury. As for the experimental part: Apoptosis inducing factor (AIF) is a mitochondrial flavoprotein which is involved in initiating caspase-independent apoptosis. After loss of mitochondrial membrane potential, AIF translocates into the nucleus, induces DNA fragmentation and peripheral chromatin condensation (Susin et al., (1999), Susin et al., (2000), Candé et al., (2004)). To analyze whether mitochondrial release of AIF is associated with RGC death after ON injury, immunostaining for AIF was performed together with TUNEL assay. One day after ON injury, there was a prominent nuclear translocation of AIF, which was not affected by pan-caspase inhibition (FIGS. 7A and 7B).

Where a SMILES comes first, the peptide text is derived from it. The star is where a group is joined. Cbz = O=C(OCc1ccccc1)*; CH2F = FC*

In the case of `COC(=O)CC(NC(=O)C(C)NC(=O)C(NC(=O)OCc1ccccc1)C(C)C)C(=O)CF` (stereo not drawn) [Z-VAD, Benzyloxycarbonyl-Val-Ala-Asp(OMe)-fluoromethylketone] (Cbz-Val-Ala-Asp(OMe)-CH2F; configuration not given here), the IPL thickness entry in experiment [1] was “preservation of IPL thickness”. Besides, in experiment [2], the “reduction of Brn3b positive cells” value was “prevented the reduction of Brn3b positive cells”. In addition, the “nuclear translocation of AIF” value in experiment [3] was “not affected”.

For the origin of these results see patent US10617735B2, “Methods and compositions for preserving retinal ganglion cells” (Massachusetts Eye and Ear Infirmary, priority 2010, dated 2020).
